One block for each molecule: values may come before it.
How the values were obtained:
[1] = tested on: NCI-H460 (lung, large cell) xenograft; assay: Xenograft, fractionated IR plus Compound 1, time to TV400%; format: in vivo, mouse
Experimental: (§1) The therapeutic relevance of DNA-PK inhibition by Compound 1 was investigated in vivo in combination with ionizing radiation (IR), a clinically established DSB-inducing treatment. Compound 1 was tested for activity in six xenograft mouse models of human cancer. The models were chosen from different cancer indications (colon, lung, head and neck, pancreatic), and histological subtypes (adeno, squamous, large cell). Ionizing radiation was administered using a fractionated schedule of 2 Gy per day administered over five consecutive days (total radiation dose=10 Gy). Compound 1 was given orally 10 min prior to each fraction of radiation (ONC397-1-2AZ, ONC397-1-3AZ, ONC397-1-4AZ, ONC397-1-5AZ, ONC397-1-8AZ).
(§2) Radiotherapy enhancing effect of Compound 1 was quantified across the tested models by the time to reaching 400% initial volume for the 150 mg/kg study arms. The resulting Kaplan-Meier plots were compared by the log-rank test.

[2] = tested on: Capan-1 (pancreas, adeno) xenograft; assay: as above; format: in vivo, mouse
Experimental: as §1, §2

[3] = tested on: A549 (lung, adeno) xenograft; assay: as above; format: in vivo, mouse
Experimental: as §1, §2

[4] = tested on: BxPC3 (pancreas, adeno) xenograft; assay: as above; format: in vivo, mouse
Experimental: as §1, §2

[5] = tested on: HCT116 (colon, adeno) xenograft; assay: as above; format: in vivo, mouse
Experimental: as §1, §2

FaDu xenograft = format: in vivo
From the text: The standard radiotherapy regimen used in the clinic is a 6-week fractionated treatment schedule (5 fractions of 2 Gy IR per week—60 Gy total).

[6] = tested on: myeloid and lymphoid cells; assay: Hematology study, blood cell counts in immunocompetent mice; format: in vivo, mouse; details: addition of Compound 1 to etoposide/cisplatin
From the text: For efficacy xenograft study 1014-1-58/BKU00105 female CD1 nu/nu mice [internal Batch ID 04108; Charles River Laboratories, Sulzfeld, Germany], aged 6-8 weeks, were used. For the hematology study 1015-1-3/BKU00106 immunocompetent female CD1 mice [internal Batch ID1406; Janvier Labs, Genest-Saint-Isle, France], aged 12 weeks were used. The mice were acclimatized to the housing conditions for 1 week. They were kept in groups of 10 in polysulfone cages Type III (42.5×26.6×15.5 cm; Techniplast, Hohenpeissenberg). Bedding consisted of aspen chips (E. Becker, Castrop-Rauxel). Room temperature was 24+/−2° C. and relative humidity was 50+/−10% at 15 air changes per hour. Drinking water (provided ad libitum) was supplemented with 1 mg/mL Chlorine and was adjusted to a pH of 6.5 with HCl. […]
The hematology data were evaluated by RM-ANOVA and Bonferroni multiple comparisons post test comparing the blood cell counts of the respective combination groups to the blood cell counts of the SoC only treatment group.
In parallel with the antitumor effect of the etoposide/cisplatin/Compound 1 combination, the effect on myeloid and lymphoid cells was investigated in immunocompetent mice (refer to ONC1015-1-3AZ). […] Blood cell count was determined under treatment (days 5 and 11) and during recovery (days 18 and 24).

HELA = assay: cells; details: Homo sapiens, read-out: GI50 of etoposide (±Compound 1)
SF295 = assay: SRB growth inhibition, 93 cell lines panel; details: Homo sapiens, SF-295, read-out: GI50 of etoposide (±Compound 1)
DLD1 = assay: cells; details: Homo sapiens, DLD-1, read-out: GI50 of etoposide (±Compound 1)
SF268 = assay: SRB growth inhibition, 93 cell lines panel; details: Homo sapiens, SF-268, read-out: GI50 of etoposide (±Compound 1)
SKHEP1 = assay: cells; details: Homo sapiens, SK-HEP1, read-out: GI50 of etoposide (±Compound 1)
Experimental: (§3) 90 μl of cells, after a 48-hour pre-growth period, were treated by mixing with 10 μl of the compound-containing media (resulting in a final DMSO concentration of 0.1%).
(§4) This is the drug concentration causing a 50% reduction compared to the net protein increase in control cells during the drug incubation period. In other words, G150 is IC50 corrected for time zero. […] TGI was calculated from Ti=Tz. […] It was calculated as 100×[(Ti−Tz)/Tz]=−50.

MT3 = assay: cells; details: MT-3, read-out: GI50 of etoposide (±Compound 1)
Experimental: as §3, §4

PLCPRF5 = assay: cells; details: Homo sapiens, PLC-PRF-5, read-out: GI50 of etoposide (±Compound 1)
Experimental: as §3, §4

HEPG2 = assay: cells; details: Homo sapiens, HepG2, read-out: GI50 of etoposide (±Compound 1)
Experimental: as §3, §4

SKNAS = assay: SRB growth inhibition, 93 cell lines panel; details: Homo sapiens, SK-N-AS, read-out: GI50 of etoposide (±Compound 1)
JEG3 = assay: Single agent activity, panel of 81 cancer cell lines plus PBMC; format: cell-based; details: Homo sapiens, JEG-3, lower end of range
[7] = tested on: mesothelioma (pleura) cell lines; assay: cells; details: read-out: Median etoposide concentration needed to reach GI50
[8] = IR 10 Gy (5 x 2 Gy) + Compound 1 150 mg/kg po
[9] = IR 10 Gy (5 x 2 Gy) + Compound 1 150 mg/kg po 10 min prior to each fraction

SMILES: COc1ccc([C@@H](O)c2cc(-c3ncnc4cc(N5CCOCC5)ccc34)c(F)cc2Cl)nn1 [Compound 1, (S)-[2-chloro-4-fluoro-5-(7-morpholin-4-yl-quinazolin-4-yl)-phenyl]-(6-methoxy-pyridazin-3-yl)-methanol]
Enhancement Ratio [combi/IR only] [1, 8]: 2.6
median time to TV400% Combi [1, 9]: 45 days
Enhancement Ratio [combi/IR only] [2, 8]: 2
median time to TV400% Combi [2, 9]: 132 days
Enhancement Ratio [combi/IR only] [3, 8]: 1.5
median time to TV400% Combi [3, 9]: 42 days
Enhancement Ratio [combi/IR only] [4, 8]: 2
median time to TV400% Combi [4, 9]: 73.5 days
Enhancement Ratio [combi/IR only] [5, 8]: 1.5
median time to TV400% Combi [5, 9]: 46 days
complete tumor regression, % of the animals (FaDu xenograft; 6 weeks IR (60 Gy total) + 10 mg/kg po, no regrowth during study period (113 days)): 44%
tumor regression (FaDu xenograft; 6 weeks IR (60 Gy total) + 25 and 50 mg/kg po): regressed in all 10 animals
tumor growth in comparison to IR alone (FaDu xenograft; 6 weeks IR (60 Gy total) + Compound 1 po): strong inhibition of tumor growth
tolerability (FaDu xenograft; 6 weeks IR + Compound 1): generally well tolerated
blood cell reduction and recovery [6]: did not significantly affect blood cell reduction nor the recovery phase

GI50 (HELA): 2360 nM
GI50 (DLD1): 1350 nM
GI50 (SKHEP1): 83 nM
GI50 (HEPG2): 806 nM
GI50 (SKNAS): 2150 nM
GI50 (JEG3): 30 nM
GI50 [7]: 1000 nM
SMILES: COc1cc([C@@H]2c3cc4c(cc3[C@@H](O[C@@H]3O[C@@H]5CO[C@@H](C)O[C@H]5[C@H](O)[C@H]3O)[C@H]3COC(=O)[C@H]23)OCO4)cc(OC)c1O [Etoposide]
GI50 (SF295): 1160 nM
GI50 (SF268): 1970 nM
GI50 (MT3): 609 nM
GI50 (PLCPRF5): 6.25 µM
